Measured values reported in US8193238B2, “Inhibition of microtubule protrusion in cancer cells” (University of Maryland, Baltimore, priority 2006, dated 2012).
Entries after “also recorded” stand apart in the source; their conditions may differ.

Key:
Format in all cases: cell-based, mouse
[1] = system: EpH4 cells; experiment: Protrusions in suspended cells treated with cytoskeletal inhibitors (EpH4)
Protocol: In FIG. 2A, after 15 minutes of suspension, protrusions in EpH4 and MCF10A cells are quite small (Control, white arrows). […] In FIG. 2B, populations of live, suspended cells were scored blindly for two or more protrusions longer than the cell radius. Each bar represents the mean+S.D. for three experiments in which at least 100 single cells were counted.
EpH4 cells were suspended in either DMEM (Control) or media containing 5 μM Latrunculin-A (LA), 1 μM Colchicine or the combination of both drugs for 30 minutes. Cells were then spun onto glass coverslips and fluorescently stained for α-tubulin (green) and polymerized actin (red). Protrusions that are difficult to see by phase contrast are easily discernible with immunostaining for α-tubulin (white arrows). Protrusions contain little polymerized actin, except at points of concentration, which are often at the end (arrowhead).
EpH4 and B19 cells were suspended over 2% agarose coated plates to prevent attachment in either serum-free DMEM or media containing. Latrunculin-A (5 μM) to enhance protrusions. For co-staining of α-tubulin and actin, suspended cells were then centrifuged onto poly-L-lysine coated coverslips (280 g×5 min), fixed in 3.7% formaldehyde in PBS for 10 min, and permeablized with 0.1% Triton X-100 in PBS. Adhered cells were then stained for 1 hr at room temperature using FITC-conjugated anti-α-tubulin (1:200; Sigma), Alexa-594 phalloidin (1:100; Molecular Probes), and Hoescht 33342 (1:5000; Sigma).
In order to initially characterize the cytoskeletal mechanism underlying these protrusions, suspended cells were treated with inhibitors of actin and tubulin polymerization (FIG. 2). After 15 minutes of suspension, the protrusions in untreated EpH4 or MCF10A cells remain fairly short (FIG. 2, white arrows). These early protrusions can often be difficult to detect with phase-contrast microscopy, due to interfering light refraction from the plasma membrane. […] Protrusions were more easily visible with immunofluorescence than phase contrast microscopy (FIG. 3, white arrows). Although actin filament staining was generally low along the length of the protrusion, dense points of actin were often found at the end of protrusions (FIG. 3, arrowheads).

[2] = system: EpH4-Bcl2 cells; experiment: Cell-cell attachment assay; conditions: EpH4-Bcl2 in 0.3% methylcellulose over agarose, 5 hours; listed as LA
Protocol: (§1) In FIG. 6A, EpH4-Bcl2 cells were suspended over agarose and treated with inhibitors as above. Following treatment, cells were plated into 0.3% methylcellulose media over agarose and the rate of cell-cell attachment was followed by Hoescht DNA staining. […] Similar results were found in three independent experiments. In FIG. 6B, EpH4-Bcl2 cells suspended over agarose for one hour in DMEM or DMEM containing LA (5 μM), Colchicine (1 μM), or the combination. Reattachment of these cells to either uncoated tissue culture plates or those pre-coated with laminin was followed by XTT cell viability assay. Values represent mean+S.D. of raw XTT values of three separate experiments.
B19 cells were seeded onto 10 cm dishes until 80% confluency. The media was aspirated and cells were incubated in fresh growth media containing Hoescht 33342 (1:5000) for 30 min at 37° C. to label all attached cells. The cells were washed twice in PBS, detached by trypsinization, and an equivalent number of cells were resuspended in serum-free media containing 0.3% methylcellulose with either 5 μM Latrunculin A, 100 μM Colchicine, 1 μg/ml vinblastine, or 5 μg/ml nocodazole and plated over 2% agarose-coated 24-well plates. The progression of cell-cell adhesion over time was visualized by the EpiChemi3 Imaging System (UVP, Inc.; Upland, Calif.) using an excitation wavelength of 365 nm and a blue band pass filter. Images were obtained with an attached Hamamatsu CCD camera (Hamamatsu Photonics, Hamamatsu City, Japan) and analyzed with UVP Labworks Image Acquisition and Analysis Software v. 4.6.
(§2) To determine if these microtubule protrusions influence the ability of cells to form attachments, the cells were treated with inhibitors of actin or tubulin polymerization and assessed both cell-cell and cell-substratum attachment (FIG. 6). […] Induction of such nonspecific attachment activity in detached mammary epithelial cells could promote tumor cell dissemination, particularly when apoptotic resistance allows this response to continue for extended periods.

[3] = system: EpH4-Bcl2 cells; experiment: Cell-substratum attachment assay
Protocol: as §1
Equivalent numbers of B19 cells were suspended over 6-well plates coated in 2% agarose in serum-free media containing 5 μM Latrunculin-A (LA; BioMol, Plymouth Meeting, Pa.), 100 μM colchicine (Col; Sigma, St. Louis, Mo.), 5 μg/ml nocodazole (Noc), or 1 μg/ml vinblastine (VinB; Sigma) for a duration of 1 hr at 37° C. Cells were collected by centrifugation (1000 rpm×5 min) and drug containing media was aspirated. Cells were resuspended in EpH4 serum-containing growth media and aliquoted out into 24 wells (8 timepoints×3 replicates) of a 96-well clear bottom black plate. After plating, cells were allowed to attach for duration of 15 min, 45 min, 1.5 hr, 2 hr, 3 hr, 4 hr, 5 hr, and 24 hr at which point the media was aspirated from the replicate wells, washed twice in PBS, and fresh growth media was replaced at each timepoint. After 24 hr, all wells were aspirated and cells were incubated in growth media containing Hoescht 33342 (1:5000) for 30 min at 37° C. to label all attached cells. Fluorescence was measured using a Biotek Synergy HT Multi-Detection Microplate Reader (Winooski, Vt.) at excitation wavelength 360 nm and an emission filter of 460 nm followed by subsequent analysis using the KC4 Data Analysis software. The percentage of cell attachment for each treatment exposure was calculated as the RFU at each timepoint divided by the RFU at 24 h (maximum attachment). The standard deviations of triplicates at each timepoint are shown.
as §2

C/C1=C/C(=O)O[C@@H]2C[C@@H](CC[C@H](C)/C=C\C=C\CC1)O[C@@](O)([C@@H]1CSC(=O)N1)C2 [Latrunculin-A]
protrusions ([1]; EpH4, 15 minutes of suspension, Latrunculin-A 5 μM, Colchicine 1 μM, listed as latrunculin-A): significantly enhanced both the number and length of protrusions | microtubule protrusions by immunofluorescence (α-tubulin) ([1]; EpH4 suspended 30 minutes, LA 5 μM, listed as LA): increase the number and length of microtubule protrusions; also recorded: strongly enhances the formation of microtubule protrusions | cell-cell attachment (clustering) [2]: did speed the rate at which cells bound to each other; also recorded: cluster similarly or even more tightly compared to control cells | attachment of cells to tissue culture surfaces ([3]; EpH4-Bcl2 (B19), 1 hr in suspension with inhibitor, then replated): did not significantly affect attachment | cell-surface attachment to uncoated or laminin-coated plates (XTT) ([3]; EpH4-Bcl2 suspended one hour, LA 5 μM, Colchicine 1 μM): does not affect cell-surface attachment
